{"source": "patent US12077503B2", "about": "“Substituted cyclic amides and their use as herbicides” (FMC CORPORATION, priority 2015, dated 2024)", "type_in_all_cases": "in vivo", "key": {"[1]": {"system": "barnyardgrass (Echinochloa crus-galli)", "test": "Test B flooded paddy test", "conditions": "Echinochloa crus-galli, 250 g ai/ha, Flood; 0 to 100 scale where 0 is no effect and 100 is complete control; read-out: Barnyardgrass plant response rating", "outline": "(§1)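 2-leaf plants; pots flooded 3 cm over soil; cpd added to paddy water; depth held; greenhouse 13–15 d; visual rating vs controls, 0 = no effect, 100 = complete control.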"}, "[2]": {"system": "sedge, umbrella (small-flower umbrella sedge, Cyperus difformis)", "test": "Test B flooded paddy test", "conditions": "Cyperus difformis, 250 g ai/ha, Flood; 0 to 100 scale where 0 is no effect and 100 is complete control; read-out: Sedge, Umbrella plant response rating", "outline": "as §1"}, "[3]": {"system": "ducksalad (Heteranthera limosa)", "test": "Test B flooded paddy test", "conditions": "Heteranthera limosa, 250 g ai/ha, Flood; 0 to 100 scale where 0 is no effect and 100 is complete control; read-out: Ducksalad plant response rating", "outline": "as §1"}, "rice (Oryra sativa)": {"system": "rice (Oryra sativa)", "test": "Test B flooded paddy test", "conditions": "Oryza sativa, 250 g ai/ha, Flood; 0 to 100 scale where 0 is no effect and 100 is complete control; read-out: Rice plant response rating", "outline": "as §1"}, "[4]": {"system": "barnyardgrass (Echinochloa crus-galli)", "test": "Test A preemergence", "conditions": "Echinochloa crus-galli, pre-emergence, 240 h, 0 to 100 scale where 0 is no effect and 100 is complete control, read-out: Barnyardgrass plant response rating", "outline": "(§2)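 In a loam soil and sand blend, planted seeds got a preemergence directed soil spray, and young plants at the one- to two-leaf stage, 2–10 cm high, got a postemergence application; ~10 d greenhouse hold; injury rated visually, 0 = none, 100 = complete control.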"}, "[5]": {"system": "ragweed (common ragweed, Ambrosia elatior)", "test": "Test A preemergence", "conditions": "Ambrosia artemisiifolia, pre-emergence, 240 h, 0 to 100 scale where 0 is no effect and 100 is complete control, read-out: Ragweed plant response rating", "outline": "as §2"}, "[6]": {"system": "ryegrass, Italian (Italian ryegrass, Lolium multiflorum)", "test": "Test A preemergence", "conditions": "Lolium multiflorum, pre-emergence, 240 h, 0 to 100 scale where 0 is no effect and 100 is complete control, read-out: Ryegrass, Italian plant response rating", "outline": "as §2"}, "[7]": {"system": "pigweed (Amaranthus retroflexus)", "test": "Test A preemergence", "conditions": "Amaranthus retroflexus, pre-emergence, 240 h, 0 to 100 scale where 0 is no effect and 100 is complete control, read-out: Pigweed plant response rating"}, "Kochia (Kochia scoparia) [8]": {"system": "Kochia (Kochia scoparia)", "test": "Test A preemergence", "conditions": "Bassia scoparia, pre-emergence, 240 h, 0 to 100 scale where 0 is no effect and 100 is complete control, read-out: Kochia plant response rating", "outline": "as §2"}, "[9]": {"system": "giant foxtail (Setaria faberii)", "test": "Test A preemergence", "conditions": "Setaria faberi, pre-emergence, 240 h, 0 to 100 scale where 0 is no effect and 100 is complete control, read-out: Foxtail, Giant plant response rating", "outline": "as §2"}, "corn (Zea mays)": {"system": "corn (Zea mays)", "test": "Test A postemergence", "conditions": "Zea mays, post-emergence, 240 h, Postemergence, read-out: Corn plant response rating (0 to 100 scale)", "outline": "as §2"}, "[10]": {"system": "wheat (Triticum aestivum)", "test": "Test A postemergence", "conditions": "Triticum aestivum, post-emergence, 240 h, Postemergence, read-out: Wheat plant response rating (0 to 100 scale)", "outline": "as §2"}, "[11]": {"system": "barnyardgrass (Echinochloa crus-galli)", "test": "Test A postemergence", "conditions": "Echinochloa crus-galli, post-emergence, 240 h, Postemergence", "outline": "as §2"}, "[12]": {"system": "Galium (catchweed bedstraw, Galium aparine)", "test": "Test A postemergence", "conditions": "Galium, post-emergence, 240 h, Postemergence, read-out: Galium plant response rating (0 to 100 scale)", "outline": "as §2"}, "[13]": {"system": "ragweed (common ragweed, Ambrosia elatior)", "test": "Test A postemergence", "conditions": "Ambrosia artemisiifolia, post-emergence, 240 h, Postemergence, read-out: Ragweed plant response rating (0 to 100 scale)", "outline": "as §2"}, "[14]": {"system": "ryegrass, Italian (Italian ryegrass, Lolium multiflorum)", "test": "Test A postemergence", "conditions": "Lolium multiflorum, post-emergence, 240 h, Postemergence, read-out: Ryegrass, Italian plant response rating (0 to 100 scale)", "outline": "as §2"}, "[15]": {"system": "blackgrass (Alopecurus myosuroides)", "test": "Test A postemergence", "conditions": "Alopecurus myosuroides, post-emergence, 240 h, Postemergence, read-out: Blackgrass plant response rating (0 to 100 scale)", "outline": "as §2"}, "[16]": {"system": "pigweed (Amaranthus retroflexus)", "test": "Test A postemergence", "conditions": "Amaranthus retroflexus, post-emergence, 240 h, Postemergence, read-out: Pigweed plant response rating (0 to 100 scale)", "outline": "as §2"}, "Kochia (Kochia scoparia) [17]": {"system": "Kochia (Kochia scoparia)", "test": "Test A postemergence", "conditions": "Bassia scoparia, post-emergence, 240 h, Postemergence, read-out: Kochia plant response rating (0 to 100 scale)", "outline": "as §2"}, "[18]": {"system": "giant foxtail (Setaria faberii)", "test": "Test A postemergence", "conditions": "Setaria faberi, post-emergence, 240 h, Postemergence, read-out: Foxtail, Giant plant response rating (0 to 100 scale)", "outline": "as §2"}, "[19]": {"conditions": "125 g ai/ha, preemergence, visual injury rating, approximately 10 d"}, "[20]": {"conditions": "125 g ai/ha, visual rating about 10 d after treatment"}, "[21]": {"conditions": "31 g ai/ha, 0 is no effect, 100 is complete control"}}, "data": [{"smiles": "O=C1NC[C@H](c2cccc(C(F)(F)F)c2)[C@H]1C(=O)Nc1ccccc1-n1cncn1", "note": "[Compound 1290]", "values": [{"measurement": "pest or weed control at 250 g/ha", "setting": "[1]", "value": 0, "unit": "%"}, {"measurement": "pest or weed control at 250 g/ha", "setting": "[2]", "value": 0, "unit": "%"}, {"measurement": "pest or weed control at 250 g/ha", "setting": "[3]", "value": 0, "unit": "%"}, {"measurement": "pest or weed control at 250 g/ha", "setting": "rice (Oryra sativa)", "value": 10, "unit": "%"}, {"measurement": "pest or weed control at 31 g/ha", "setting": "[4]; 31 g ai/ha, Preemergence", "value": 0, "unit": "%"}, {"measurement": "pest or weed control at 125 g/ha", "setting": "[4]; [19]", "value": 0, "unit": "%"}, {"measurement": "pest or weed control at 31 g/ha", "setting": "[5]; 31 g ai/ha, Preemergence", "value": 0, "unit": "%"}, {"measurement": "pest or weed control at 125 g/ha", "setting": "[5]; [19]", "value": 0, "unit": "%"}, {"measurement": "pest or weed control at 31 g/ha", "setting": "[6]; 31 g ai/ha, Preemergence", "value": 0, "unit": "%"}, {"measurement": "pest or weed control at 125 g/ha", "setting": "[6]; [19]", "value": 0, "unit": "%"}, {"measurement": "pest or weed control at 31 g/ha", "setting": "[7]; 31 g ai/ha, Preemergence", "value": 0, "unit": "%"}, {"measurement": "pest or weed control at 125 g/ha", "setting": "[7]; [19]", "value": 0, "unit": "%"}, {"measurement": "pest or weed control at 31 g/ha", "setting": "Kochia (Kochia scoparia) [8]; 31 g ai/ha, Preemergence", "value": 0, "unit": "%"}, {"measurement": "pest or weed control at 125 g/ha", "setting": "Kochia (Kochia scoparia) [8]; [19]", "value": 0, "unit": "%"}, {"measurement": "pest or weed control at 31 g/ha", "setting": "[9]; 31 g ai/ha, Preemergence", "value": 0, "unit": "%"}, {"measurement": "pest or weed control at 125 g/ha", "setting": "[9]; [19]", "value": 0, "unit": "%"}, {"measurement": "plant injury at 125 g/ha", "setting": "corn (Zea mays); [20]", "value": 0, "unit": "%"}, {"measurement": "plant injury at 31 g/ha", "setting": "corn (Zea mays); [21]", "value": 0, "unit": "%"}, {"measurement": "plant injury at 125 g/ha", "setting": "[10]; [20]", "value": 0, "unit": "%"}, {"measurement": "plant injury at 31 g/ha", "setting": "[10]; [21]", "value": 0, "unit": "%"}, {"measurement": "pest or weed control at 125 g/ha", "setting": "[11]; 125 g ai/ha, visual rating about 10 d after treatment, read-out: Barnyardgrass plant response rating (0 to 100 scale, 0 no effect, 100 complete control)", "value": 0, "unit": "%"}, {"measurement": "pest or weed control at 31 g/ha", "setting": "[11]; 31 g ai/ha, 0 is no effect, 100 is complete control, read-out: Barnyardgrass plant response rating (0 to 100 scale)", "value": 0, "unit": "%"}, {"measurement": "pest or weed control at 125 g/ha", "setting": "[12]; [20]", "value": 0, "unit": "%"}, {"measurement": "pest or weed control at 31 g/ha", "setting": "[12]; [21]", "value": 0, "unit": "%"}, {"measurement": "pest or weed control at 125 g/ha", "setting": "[13]; [20]", "value": 0, "unit": "%"}, {"measurement": "pest or weed control at 31 g/ha", "setting": "[13]; [21]", "value": 0, "unit": "%"}, {"measurement": "pest or weed control at 125 g/ha", "setting": "[14]; [20]", "value": 0, "unit": "%"}, {"measurement": "pest or weed control at 31 g/ha", "setting": "[14]; [21]", "value": 0, "unit": "%"}, {"measurement": "pest or weed control at 125 g/ha", "setting": "[15]; [20]", "value": 0, "unit": "%"}, {"measurement": "pest or weed control at 31 g/ha", "setting": "[15]; [21]", "value": 0, "unit": "%"}, {"measurement": "pest or weed control at 125 g/ha", "setting": "[16]; [20]", "value": 0, "unit": "%"}, {"measurement": "pest or weed control at 31 g/ha", "setting": "[16]; [21]", "value": 0, "unit": "%"}, {"measurement": "pest or weed control at 125 g/ha", "setting": "Kochia (Kochia scoparia) [17]; [20]", "value": 0, "unit": "%"}, {"measurement": "pest or weed control at 31 g/ha", "setting": "Kochia (Kochia scoparia) [17]; [21]", "value": 0, "unit": "%"}, {"measurement": "pest or weed control at 125 g/ha", "setting": "[18]; [20]", "value": 0, "unit": "%"}, {"measurement": "pest or weed control at 31 g/ha", "setting": "[18]; [21]", "value": 0, "unit": "%"}]}]}
